In article PMC11881035, “^68Ga-Labeled Glycopeptides as Effective Tools for Liver Function Imaging” (Molecular Pharmaceutics, 2025):
Like-named read-outs stand apart in the source and are kept apart here.

Key:
[1] = complex stability in human blood serum; assay type: in vitro ADME
Description: (§1) The ^68Ge/^68Ga generator, devices for analytical HPLC, semipreparative HPLC, mass spectrometry, radio-thin layer chromatography, gamma counter and animal models for biodistribution and imaging studies including the image reconstruction procedures were the same as described before.[22] Stability assays in PBS and human blood serum, protein binding as well as determination of log D values followed established protocols.[25] Binding affinities (IC50) of selected ligands were determined in an isolated receptor-based assay according to a previously published procedure with minor modifications.[22] Dilutions of nonradioactive complexes were made with PBS + 0.1% BSA (10^–5–10^–12 M). Preparation of [^125I]I-Asialoorosomucoid which serves as the radioactive standard ligand has been published recently.[21]

[2] = protein binding in human serum; assay type: in vitro ADME; settings: human, serum, read-out: protein binding (%) (converted)
Description: as §1

log D determination = assay type: physicochemical; settings: read-out: log D
Description: as §1

ASGR = target: T1, ASGR (Mus musculus, UniProt P24721+P34927); assay: blocking experiment, coinjection of N-acetylgalactosamine, biodistribution in BALB/c mice; settings: in vivo, 30 min p.i., 27.7 μmol N-acetylgalactosamine
T1 construct: from tissue; host or cells: liver and other organs of living healthy female BALB/c mice
T1 sequence (P34927 1-284): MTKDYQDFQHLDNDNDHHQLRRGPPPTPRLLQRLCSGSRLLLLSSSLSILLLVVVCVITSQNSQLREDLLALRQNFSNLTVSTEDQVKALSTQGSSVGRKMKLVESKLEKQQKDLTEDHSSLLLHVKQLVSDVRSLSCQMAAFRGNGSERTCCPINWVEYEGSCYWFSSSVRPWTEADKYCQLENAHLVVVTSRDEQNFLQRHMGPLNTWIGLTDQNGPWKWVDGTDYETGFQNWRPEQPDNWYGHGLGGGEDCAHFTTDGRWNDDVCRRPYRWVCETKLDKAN
T1 sequence (P24721 1-301): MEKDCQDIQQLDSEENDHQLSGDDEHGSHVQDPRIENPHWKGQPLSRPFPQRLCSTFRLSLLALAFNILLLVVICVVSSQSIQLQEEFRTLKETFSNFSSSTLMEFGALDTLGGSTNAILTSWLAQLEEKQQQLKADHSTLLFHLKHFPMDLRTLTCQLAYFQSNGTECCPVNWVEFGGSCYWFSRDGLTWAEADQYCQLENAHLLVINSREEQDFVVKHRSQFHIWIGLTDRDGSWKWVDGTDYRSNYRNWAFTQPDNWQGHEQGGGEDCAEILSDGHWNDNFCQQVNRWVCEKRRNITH
Description: Less liver uptake was found for [^68Ga]Ga-NODAGA-HexaLysan (55.5 ± 7.4% ID/g, 30 min p.i.) and least for [^68Ga]Ga-NODAGA-TriLysan (9.4 ± 2.0% ID/g, 30 min p.i.). […] However, an increasing activity accumulation in the intestine was found for [^68Ga]Ga-NODAGA-NonaLysan, [^68Ga]Ga-NODAGA-GalNAc-Nonalysan, and [^68Ga]Ga-NODAGA-HexaLysan over time. Nevertheless, liver-to-organ ratios were highest for [^68Ga]Ga-NODAGA-NonaLysan (Figure 3). Lower liver-to-organ ratios were found for the GalNAc derivative due to higher off-target binding in the pancreas, stomach, heart, muscle, lung, and femur. […] Coinjection of both nonamers with a large excess of N-acetylgalactosamine led to a statistically significant reduction of liver uptake indicating specific interactions of the tracers with their target (Figure 4). As a consequence of the reduced liver uptake also a reduction of the intestinal uptake was observed.
Figure 4 Data (% ID/g) from the blocking experiments using ^68Ga-labeled NODAGA-GalNAc-NonaLysan and NODAGA-NonaLysan in healthy BALB/c mice at 30 min p.i. Blocking was carried out using 27.7 μmol of N-acetylgalactosamine (**p ≤ 0.01; *p ≤ 0.05).

[3] = biodistribution in healthy BALB/c mice; settings: mouse, in vivo; for tissue uptake at 10 min: 10 min p.i.; for tissue uptake at 0.5 h: 30 min p.i.; for tissue uptake at 1 h: 60 min p.i.
Description: as §1
Animal experiments were performed in accordance with the Austrian animal experiments law (BGBl. I Nr. 114/2012) and the institution’s animal welfare standards as approved by the Austrian Federal Ministry of Education, Science and Research (BMBWF, 2022–0.311.708). Imaging experiments were conducted at Werner Siemens Imaging Center (Tübingen, Germany) according to the German animal welfare act as approved by the local authorities (R5/19 G, R09/21 G).
Figure 2 Biodistribution data (% ID/g) of ^68Ga-labeled NODAGA-GalNAc-NonaLysan, NODAGA-NonaLysan, NODAGA-HexaLysan, and NODAGA-TriLysan in healthy BALB/c mice at 10, 30, and 60 min p.i. (100 pmol, 1 MBq).

complex stability in PBS = assay type: physicochemical
Description: as §1

With `CC(=O)N[C@@H]1[C@@H](O)[C@@H](O)[C@@H](CO)O[C@H]1n1cc(CCCCC(=O)NCCCC[C@H](NC(=O)CCCNC(=O)CCC(C(=O)O)N2CCN(CC(=O)O)CCN(CC(=O)O)CC2)C(=O)NCC(=O)NCC(=O)N[C@@H](CCCCNC(=O)CCCCc2cn([C@@H]3O[C@H](CO)[C@H](O)[C@H](O)[C@H]3NC(C)=O)nn2)C(=O)NCC(=O)NCC(=O)N[C@@H](CCCCNC(=O)CCCCc2cn([C@@H]3O[C@H](CO)[C@H](O)[C@H](O)[C@H]3NC(C)=O)nn2)C(=O)NCC(=O)NCC(=O)N[C@@H](CCCCNC(=O)CCCCc2cn([C@@H]3O[C@H](CO)[C@H](O)[C@H](O)[C@H]3NC(C)=O)nn2)C(=O)NCC(=O)NCC(=O)N[C@@H](CCCCNC(=O)CCCCc2cn([C@@H]3O[C@H](CO)[C@H](O)[C@H](O)[C@H]3NC(C)=O)nn2)C(=O)NCC(=O)NCC(=O)N[C@@H](CCCCNC(=O)CCCCc2cn([C@@H]3O[C@H](CO)[C@H](O)[C@H](O)[C@H]3NC(C)=O)nn2)C(=O)NCC(=O)NCC(=O)N[C@@H](CCCCNC(=O)CCCCc2cn([C@@H]3O[C@H](CO)[C@H](O)[C@H](O)[C@H]3NC(C)=O)nn2)C(=O)NCC(=O)NCC(=O)N[C@@H](CCCCNC(=O)CCCCc2cn([C@@H]3O[C@H](CO)[C@H](O)[C@H](O)[C@H]3NC(C)=O)nn2)C(=O)NCC(=O)NCC(=O)N[C@@H](CCCCNC(=O)CCCCc2cn([C@@H]3O[C@H](CO)[C@H](O)[C@H](O)[C@H]3NC(C)=O)nn2)C(=O)NCC(=O)NCC(N)=O)nn1` (stereo partly drawn) [[^68Ga]Ga-NODAGA-GalNAc-NonaLysan, metal not drawn] the “complex stability in serum (% intact ligand)” value ([1]; 2 min) was 98.8 ± 0.1%, the “complex stability in serum (% intact ligand)” value ([1]; 30 min) was 98.8% and the “complex stability in serum (% intact ligand)” value ([1]; 60 min) was 99.0 ± 0.2%. For the same compound, the “complex stability in serum (% intact ligand)” value ([1]; 120 min) was 98.8 ± 0.2%, the fraction unbound ([2]; 2 min) was 0.858 and the fraction unbound ([2]; 30 min) was 0.86. It also gave a fraction unbound ([2]; 60 min) of 0.826, a fraction unbound ([2]; 120 min) of 0.884 and a logD (log D determination) of -4.05. For the same compound, the tissue uptake at 0.5 h (ASGR; read-out: Blood uptake) was 0.4 ± 0.1 %ID/g, the tissue uptake at 0.5 h (ASGR; read-out: Femur uptake) was 0.7 ± 0.3 %ID/g and the tissue uptake at 0.5 h (ASGR; read-out: Heart uptake) was 0.8 ± 0.1 %ID/g. For the same compound, the tissue uptake at 0.5 h (ASGR; read-out: Intestine uptake) was 1.9 ± 0.4 %ID/g, the tissue uptake at 0.5 h (ASGR; read-out: Kidneys uptake) was 1.9 ± 0.4 %ID/g and the tissue uptake at 0.5 h (ASGR; read-out: Liver uptake) was 52.9 ± 3.2 %ID/g. The tissue uptake at 0.5 h (ASGR; read-out: Lung uptake) was 1.3 ± 0.3 %ID/g, the tissue uptake at 0.5 h (ASGR; read-out: Muscle uptake) was 1 ± 0.3 %ID/g and the tissue uptake at 0.5 h (ASGR; read-out: Pancreas uptake) was 1.5 ± 0.8 %ID/g. It also gave a tissue uptake at 0.5 h (ASGR; read-out: Spleen uptake) of 0.3 ± 0.02 %ID/g, a tissue uptake at 0.5 h (ASGR; read-out: Stomach uptake) of 2.4 ± 0.9 %ID/g and a tissue uptake at 10 min ([3]; read-out: Blood uptake) of 0.9 ± 0.5 %ID/g. It also gave a tissue uptake at 10 min ([3]; read-out: Femur uptake) of 0.9 ± 0.4 %ID/g, a tissue uptake at 10 min ([3]; read-out: Heart uptake) of 1.9 ± 0.5 %ID/g and a tissue uptake at 10 min ([3]; read-out: Intestine uptake) of 1.3 ± 0.3 %ID/g. For the same compound, the tissue uptake at 10 min ([3]; read-out: Kidneys uptake) was 3.6 ± 2.7 %ID/g, the tissue uptake at 10 min ([3]; read-out: Liver uptake) was 69.4 ± 5 %ID/g and the tissue uptake at 10 min ([3]; read-out: Lung uptake) was 1.5 ± 0.1 %ID/g. It also gave a tissue uptake at 10 min ([3]; read-out: Muscle uptake) of 1.3 ± 0.3 %ID/g, a tissue uptake at 10 min ([3]; read-out: Pancreas uptake) of 5 ± 0.5 %ID/g and a tissue uptake at 10 min ([3]; read-out: Spleen uptake) of 0.3 ± 0.1 %ID/g. The tissue uptake at 10 min ([3]; read-out: Stomach uptake) was 2.3 ± 0.4 %ID/g, the tissue uptake at 0.5 h ([3]; read-out: Blood uptake) was 0.3 ± 0.1 %ID/g and the tissue uptake at 0.5 h ([3]; read-out: Femur uptake) was 0.8 ± 0.1 %ID/g. It also gave a tissue uptake at 0.5 h ([3]; read-out: Heart uptake) of 1.7 ± 0.2 %ID/g, a tissue uptake at 0.5 h ([3]; read-out: Intestine uptake) of 3.5 ± 0.2 %ID/g and a tissue uptake at 0.5 h ([3]; read-out: Kidneys uptake) of 1.5 ± 0.2 %ID/g. It also gave a tissue uptake at 0.5 h ([3]; read-out: Liver uptake) of 77.6 ± 8 %ID/g, a tissue uptake at 0.5 h ([3]; read-out: Lung uptake) of 1.5 ± 0.2 %ID/g and a tissue uptake at 0.5 h ([3]; read-out: Muscle uptake) of 1.2 ± 0.1 %ID/g. The tissue uptake at 0.5 h ([3]; read-out: Pancreas uptake) was 5.6 ± 0.6 %ID/g, the tissue uptake at 0.5 h ([3]; read-out: Spleen uptake) was 0.3 ± 0.03 %ID/g and the tissue uptake at 0.5 h ([3]; read-out: Stomach uptake) was 2.7 ± 1 %ID/g. It also gave a tissue uptake at 1 h ([3]; read-out: Blood uptake) of 0.3 ± 0.1 %ID/g, a tissue uptake at 1 h ([3]; read-out: Femur uptake) of 0.9 ± 0.4 %ID/g and a tissue uptake at 1 h ([3]; read-out: Heart uptake) of 1.7 ± 0.1 %ID/g. For the same compound, the tissue uptake at 1 h ([3]; read-out: Intestine uptake) was 5.6 ± 0.03 %ID/g, the tissue uptake at 1 h ([3]; read-out: Kidneys uptake) was 1.3 ± 0.02 %ID/g and the tissue uptake at 1 h ([3]; read-out: Liver uptake) was 57.6 ± 0.7 %ID/g. It also gave a tissue uptake at 1 h ([3]; read-out: Lung uptake) of 1.2 ± 0.04 %ID/g, a tissue uptake at 1 h ([3]; read-out: Muscle uptake) of 1.1 ± 0.1 %ID/g and a tissue uptake at 1 h ([3]; read-out: Pancreas uptake) of 5 ± 0.6 %ID/g. The tissue uptake at 1 h ([3]; read-out: Spleen uptake) was 0.3 ± 0.1 %ID/g, the tissue uptake at 1 h ([3]; read-out: Stomach uptake) was 2.2 %ID/g and the “complex stability in PBS (% intact ligand)” value (complex stability in PBS; 2 min) was 99.1%. For the same compound, the “complex stability in PBS (% intact ligand)” value (complex stability in PBS; 30 min) was 99.0%, the “complex stability in PBS (% intact ligand)” value (complex stability in PBS; 60 min) was 99.1% and the “complex stability in PBS (% intact ligand)” value (complex stability in PBS; 120 min) was 99.1%.
